From patent US20260209297A1, “ANTIMICROBIAL PEPTIDES AND MODIFICATIONS THEREOF” (priority 2022, published 2026)
In brackets after ≈: the same amount, converted by molar mass. Positions of bridges follow the written chain, without caps; N, C: chain ends. Non-standard residues stand in square brackets, D forms with d. Residues, ends and D or L forms follow the SMILES beside them. No end group written: not given here. Dab = NCC[C@H](N)C(=O)O

Assays:
B. cinerea [1] = experiment: MIC antifungal assay in SFM culture media (with or without added salts); type: cell-based, Botrytis cinerea
B. cinerea [2] = experiment: Semi-in planta gray mold assay on detached Nicotiana benthamiana leaves (drop inoculation); type: in vivo, Botrytis cinerea; conditions: for gray mold symptoms, drop inoculation assay: 3 and 6 μM
Botrytis cinerea T-4 = conditions: Table 18
F. graminearum = type: cell-based, Fusarium graminearum
Alternaria alternata = experiment: 96-well plate MIC assay with resazurin viability; type: cell-based; conditions: Table 19; unit not given (peptide concentrations in μM)
Cercospora sojina = experiment: 96-well plate MIC assay with resazurin viability; type: cell-based; conditions: Table 19; unit not given (peptide concentrations in μM)
[3] = system: Colletotrichum gloeosporioides; experiment: 96-well plate MIC assay with resazurin viability; type: cell-based; conditions: Table 19; unit not given (peptide concentrations in μM)

With `CC[C@H](C)[C@H](NC(=O)[C@H](CCCNC(=N)N)NC(=O)[C@@H](NC(=O)[C@H](Cc1c[nH]c2ccccc12)NC(=O)[C@H](Cc1ccccc1)NC(=O)[C@H](Cc1c[nH]c2ccccc12)NC(=O)[C@H](CCCNC(=N)N)NC(=O)[C@H](CCCNC(=N)N)NC(=O)[C@H](CCCNC(=N)N)NC(=O)[C@H](Cc1ccccc1)NC(=O)CNC(=O)[C@H](CCCCN)NC(=O)[C@H](CS)NC(=O)[C@H](CCCNC(=N)N)NC(=O)CNC(=O)CN)[C@@H](C)O)C(=O)N[C@@H](CS)C(N)=O` [GMA4C_V6A] (H-GGRCKGFRRRWFWTRIC-NH2; N-terminus assumed) the “antifungal activity relative to the wild-type GMA4C_AC control, B. cinerea” value (B. cinerea [1]; in vitro, low cationic conditions) was “four-fold increase”.

`NCC[C@H](NC(=O)CNC(=O)[C@@H](N)Cc1ccccc1)C(=O)N[C@@H](CS)C(=O)N[C@@H](CCN)C(=O)NCC(=O)N[C@@H](Cc1ccccc1)C(=O)N[C@@H](CCN)C(=O)N[C@@H](CCN)C(=O)N[C@@H](CCN)C(=O)N[C@@H](CS)C(=O)N[C@@H](Cc1ccccc1)C(=O)N[C@@H](CS)C(=O)N[C@@H](Cc1c[nH]c2ccccc12)C(=O)N[C@@H](CCN)C(=O)N[C@@H](Cc1c[nH]c2ccccc12)C(=O)N[C@@H](CS)C(=O)O` [GMA4C_V5, FG(Dab)C(Dab)GF(Dab)(Dab)(Dab)CFCW(Dab)WC] (H-FG[Dab]C[Dab]GF[Dab][Dab][Dab]CFCW[Dab]WC-OH; N-terminus assumed) was tested, and the “SFM + 2 mM CaCl2 MIC (μM)” value (B. cinerea [1]; B. cinerea, Table 4) was >6 (very μM and the “SFM + 2 mM CaCl2 MIC (μM)” value (B. cinerea [1]; Table 10) was >6 (very μM.

In the case of `CC[C@H](C)[C@H](NC(=O)[C@H](CCCNC(=N)N)NC(=O)[C@H](CS)NC(=O)[C@H](CCCNC(=N)N)NC(=O)CNC(=O)[C@@H](N)CO)C(=O)N[C@@H](CC(C)C)C(=O)N[C@@H](Cc1ccccc1)C(=O)N[C@@H](CCCNC(=N)N)C(=O)N[C@@H](CS)C(=O)N[C@@H](Cc1ccccc1)C(=O)N[C@@H](CS)C(=O)N[C@H](C(=O)N[C@@H](CCCCN)C(=O)N[C@@H](CC(N)=O)C(=O)N[C@@H](CS)C(N)=O)[C@@H](C)O` [GMA1C_V1] (H-SGRCRILFRCFCTKNC-NH2; N-terminus assumed), the “gray mold symptoms, drop inoculation assay” value (B. cinerea [2]) was “failed to reduce disease symptoms”.

In the case of `CC(C)C[C@@H]1NC(=O)[C@@H](NC(=O)[C@H](C)NC(=O)CN)CSSC[C@@H](C(=O)N[C@@H](Cc2ccc(O)cc2)C(N)=O)NC(=O)[C@H](Cc2c[nH]cn2)NC(=O)[C@H](CCCNC(=N)N)NC(=O)[C@H](Cc2ccc(O)cc2)NC(=O)[C@H](Cc2ccc(O)cc2)NC(=O)[C@H](Cc2c[nH]c3ccccc23)NC(=O)[C@H](Cc2ccccc2)NC(=O)[C@H](Cc2c[nH]c3ccccc23)NC(=O)CNC(=O)[C@H](Cc2ccc(O)cc2)NC(=O)[C@H](Cc2c[nH]cn2)NC(=O)[C@H](CCCCN)NC(=O)[C@H](CO)NC(=O)[C@H](Cc2c[nH]cn2)NC(=O)[C@H](CCCNC(=N)N)NC(=O)[C@H](CC(N)=O)NC(=O)[C@H](CCCCN)NC1=O` [GMAOe1C_V3] (H-GACLKNRHSKHYGWFWYYRHCY-NH2; disulfide 3-21; N-terminus assumed), the “gray mold symptoms, drop inoculation assay, comparison within the peptide family” value (B. cinerea [2]; 1.5 μM) was “more effective”, the “MIC (μM) SFM” value (Botrytis cinerea T-4) was 1.5 µM (≈ 4.31 µg/mL) and the “MIC (μM) (SFM + 2 mM CaCl2)” value (Botrytis cinerea T-4) was 3 to 6 µM. The “MIC (μM) (SFM + 100 mM NaCl)” value (Botrytis cinerea T-4) was 2 to 3 µM.

For `C[C@@H](O)[C@H](NC(=O)[C@H](CS)NC(=O)[C@H](Cc1ccccc1)NC(=O)[C@H](CS)NC(=O)[C@H](CCCNC(=N)N)NC(=O)[C@H](CCCNC(=N)N)NC(=O)[C@H](CCCNC(=N)N)NC(=O)[C@H](Cc1ccccc1)NC(=O)CNC(=O)[C@H](CCCNC(=N)N)NC(=O)[C@H](CS)NC(=O)[C@H](CCCNC(=N)N)NC(=O)CNC(=O)CN)C(=O)N[C@H](C(=O)N[C@@H](Cc1c[nH]cn1)C(=O)N[C@@H](CS)C(N)=O)[C@@H](C)O` [GMA4C_AC, reference compound] (H-GGRCRGFRRRCFCTTHC-NH2; N-terminus assumed), the “antifungal activity against B. cinerea in presence of cations” value (B. cinerea [1]; 100 mM NaCl or 100 mM KCl) was “retain their antifungal activity”, the “SFM + 2 mM CaCl2 MIC (μM)” value (B. cinerea [1]; B. cinerea, Table 4) was >6 (a few μM and the “SFM + 2 mM CaCl2 MIC (μM)” value (B. cinerea [1]; Table 10) was >6 (a few μM.

`CC[C@H](C)[C@@H]1NC(=O)[C@H](CCCNC(=N)N)NC(=O)[C@@H](NC(=O)[C@H](CCCNC(=N)N)NC(=O)CNC(=O)[C@@H](N)CO)CSSC[C@@H](C(N)=O)NC(=O)[C@H](CC(N)=O)NC(=O)[C@H](CCCCN)NC(=O)[C@H]([C@@H](C)O)NC(=O)[C@H](Cc2c[nH]c3ccccc23)NC(=O)[C@H](Cc2ccccc2)NC(=O)[C@H](Cc2c[nH]c3ccccc23)NC(=O)[C@H](CCCNC(=N)N)NC(=O)[C@H](Cc2ccccc2)NC(=O)[C@H](CC(C)C)NC1=O` [GMA1C_V2] (H-SGRCRILFRWFWTKNC-NH2; disulfide 4-16; N-terminus assumed) was tested, and the “gray mold symptoms, drop inoculation assay, comparison within the peptide family” value (B. cinerea [2]; 1.5 μM) was “more effective”, the “gray mold symptoms, drop inoculation assay” value (B. cinerea [2]) was “completely abrogated gray mold symptoms” and the “MIC (μM) (SFM + 2 mM CaCl2)” value (Botrytis cinerea T-4) was 3 µM. The “MIC (μM) (SFM + 100 mM KCl)” value (Botrytis cinerea T-4) was over 12 µM and the “MIC (μM) (SFM + 100 mM NaCl)” value (Botrytis cinerea T-4) was 3 µM.

In the case of `C[C@@H](O)[C@H](NC(=O)[C@H](CS)NC(=O)[C@H](Cc1ccccc1)NC(=O)[C@H](CS)NC(=O)[C@H](CCCNC(=N)N)NC(=O)[C@H](CCCNC(=N)N)NC(=O)[C@H](CCCNC(=N)N)NC(=O)[C@H](Cc1ccccc1)NC(=O)CNC(=O)[C@H](CCCNC(=N)N)NC(=O)[C@H](CS)NC(=O)[C@H](CCCNC(=N)N)NC(=O)CN)C(=O)N[C@H](C(=O)N[C@@H](Cc1c[nH]cn1)C(=O)N[C@@H](CS)C(N)=O)[C@@H](C)O` [GMA4AC, reference compound] (H-GRCRGFRRRCFCTTHC-NH2), the “MIC (μM) Botrytis cinerea” value (B. cinerea [1]; SFM, Table 9) was 6 µM, the “MIC (μM) Fusarium graminearum” value (F. graminearum) was 6 µM (≈ 11.8 µg/mL) and the “MIC (μM) SFM” value (Botrytis cinerea T-4) was 3 µM (≈ 5.88 µg/mL).

For “GRCRGFRRRCFCTTHC-NH2 (cysteine pairing not given here) [GMA4AC_WT, reference compound]”, the “MIC Alternaria alternata” value (Alternaria alternata) was over 12, the “MIC Cercospora sojina” value (Cercospora sojina) was over 12 and the “MIC Colletotrichum gloeosporioides” value [3] was over 12.

With `C[C@H](NC(=O)CN)C(=O)N[C@H]1CSSC[C@@H](C(N)=O)NC(=O)[C@H](CCCCN)NC(=O)[C@H](CCCCN)NC(=O)[C@H](Cc2ccc(O)cc2)NC(=O)[C@H](Cc2c[nH]c3ccccc23)NC(=O)[C@H](Cc2ccccc2)NC(=O)[C@H](Cc2c[nH]c3ccccc23)NC(=O)[C@H](C)NC(=O)[C@H](Cc2ccccc2)NC(=O)CNC(=O)[C@H](Cc2ccccc2)NC(=O)CNC(=O)[C@H](CCC(N)=O)NC(=O)[C@H](CCCNC(=N)N)NC(=O)[C@H](Cc2c[nH]cn2)NC1=O` [GMA5CA_V3] (H-GACHRQGFGFAWFWYKKC-NH2; disulfide 3-18; N-terminus assumed) the “MIC Alternaria alternata” value (Alternaria alternata) was 3, the “MIC Cercospora sojina” value (Cercospora sojina) was 6 and the “MIC Colletotrichum gloeosporioides” value [3] was over 12. The “MIC (μM) SFM” value (Botrytis cinerea T-4) was 3 µM (≈ 6.57 µg/mL), the “MIC (μM) (SFM + 2 mM CaCl2)” value (Botrytis cinerea T-4) was over 12 µM and the “MIC (μM) (SFM + 100 mM KCl)” value (Botrytis cinerea T-4) was over 12 µM. The “MIC (μM) (SFM + 100 mM NaCl)” value (Botrytis cinerea T-4) was over 12 µM.

In the case of `CC[C@H](C)[C@@H]1NC(=O)[C@H](CCCNC(=N)N)NC(=O)[C@@H](NC(=O)[C@H](CCCNC(=N)N)NC(=O)CNC(=O)[C@@H](N)CO)CSSC[C@@H](C(N)=O)NC(=O)[C@H](CC(N)=O)NC(=O)[C@H](CCCCN)NC(=O)[C@H]([C@@H](C)O)NC(=O)[C@H](Cc2ccccc2)NC(=O)[C@H](Cc2ccc(O)cc2)NC(=O)[C@H](Cc2c[nH]c3ccccc23)NC(=O)[C@H](CCCNC(=N)N)NC(=O)[C@H](Cc2ccccc2)NC(=O)[C@H](CC(C)C)NC1=O` [GMA1C_V3] (H-SGRCRILFRWYFTKNC-NH2; disulfide 4-16; N-terminus assumed), the “MIC (μM) SFM” value (Botrytis cinerea T-4) was 1.5 µM (≈ 3.07 µg/mL), the “MIC (μM) (SFM + 2 mM CaCl2)” value (Botrytis cinerea T-4) was 6 µM and the “MIC (μM) (SFM + 100 mM KCl)” value (Botrytis cinerea T-4) was over 12 µM. For the same compound, the “MIC (μM) (SFM + 100 mM NaCl)” value (Botrytis cinerea T-4) was 3 µM.

For `C[C@H](NC(=O)CN)C(=O)N[C@@H](CS)C(=O)N[C@@H](Cc1c[nH]cn1)C(=O)N[C@@H](CCCNC(=N)N)C(=O)N[C@@H](CCC(N)=O)C(=O)NCC(=O)N[C@@H](Cc1ccccc1)C(=O)NCC(=O)N[C@@H](Cc1ccccc1)C(=O)N[C@@H](C)C(=O)N[C@@H](CS)C(=O)N[C@@H](Cc1ccccc1)C(=O)N[C@@H](CS)C(=O)N[C@@H](Cc1ccc(O)cc1)C(=O)N[C@@H](CCCCN)C(=O)N[C@@H](CCCCN)C(=O)N[C@@H](CS)C(N)=O` [GMA5CA_WT, reference compound] (H-GACHRQGFGFACFCYKKC-NH2; N-terminus assumed), the “MIC Alternaria alternata” value (Alternaria alternata) was 6, the “MIC Cercospora sojina” value (Cercospora sojina) was 12 and the “MIC Colletotrichum gloeosporioides” value [3] was over 12.

With `CC(C)C[C@H](NC(=O)[C@H](CS)NC(=O)[C@H](C)NC(=O)CN)C(=O)N[C@@H](CCCCN)C(=O)N[C@@H](CC(N)=O)C(=O)N[C@@H](CCCNC(=N)N)C(=O)N[C@@H](Cc1c[nH]cn1)C(=O)N[C@@H](CO)C(=O)N[C@@H](CCCCN)C(=O)N[C@@H](Cc1c[nH]cn1)C(=O)N[C@@H](Cc1ccc(O)cc1)C(=O)NCC(=O)N[C@@H](CS)C(=O)N[C@@H](Cc1ccc(O)cc1)C(=O)N[C@@H](CS)C(=O)N[C@@H](Cc1ccc(O)cc1)C(=O)N[C@@H](Cc1ccc(O)cc1)C(=O)N[C@@H](CCCNC(=N)N)C(=O)N[C@@H](Cc1c[nH]cn1)C(=O)N[C@@H](CS)C(=O)N[C@@H](Cc1ccc(O)cc1)C(N)=O` [GMAOe1C_WT, reference compound] (H-GACLKNRHSKHYGCYCYYRHCY-NH2; N-terminus assumed) the “reducing gray mold disease symptoms (lesion sizes)” value (B. cinerea [2]; detached N. benthamiana leaves, 1.5 μM, 3 μM and 6 μM, 48 h) was “only effective at 6 μM”.

For `C[C@H](NC(=O)CN)C(=O)N[C@H]1CSSC[C@@H](C(N)=O)NC(=O)[C@H](CCCCN)NC(=O)[C@H](CCCCN)NC(=O)[C@H](Cc2ccc(O)cc2)NC(=O)[C@H](Cc2ccccc2)NC(=O)[C@H](Cc2ccccc2)NC(=O)[C@H](Cc2ccccc2)NC(=O)[C@H](C)NC(=O)[C@H](Cc2ccccc2)NC(=O)CNC(=O)[C@H](Cc2ccccc2)NC(=O)CNC(=O)[C@H](CCC(N)=O)NC(=O)[C@H](CCCNC(=N)N)NC(=O)[C@H](Cc2c[nH]cn2)NC1=O` [GMA5CA_V4] (H-GACHRQGFGFAFFFYKKC-NH2; disulfide 3-18; N-terminus assumed), the “MIC Alternaria alternata” value (Alternaria alternata) was 3, the “MIC Cercospora sojina” value (Cercospora sojina) was 6 and the “MIC Colletotrichum gloeosporioides” value [3] was over 12. For the same compound, the “MIC (μM) SFM” value (Botrytis cinerea T-4) was 3 µM (≈ 6.33 µg/mL), the “MIC (μM) (SFM + 2 mM CaCl2)” value (Botrytis cinerea T-4) was over 12 µM and the “MIC (μM) (SFM + 100 mM KCl)” value (Botrytis cinerea T-4) was over 12 µM. For the same compound, the “MIC (μM) (SFM + 100 mM NaCl)” value (Botrytis cinerea T-4) was over 12 µM.
